Test results published in patent US20230190777A1, “MAMMALIAN MILK OLIGOSACCHARIDES PREVENT VIRAL INFECTION OF HUMAN EPITHELIUM” (The Regents of the University of California, priority 2020, published 2023).
Read-outs that look alike come from different tables or passages of the source.

Legend:
[1] = tested on: Tulane virus; assay: Tulane virus infection of MK2-LLC cells after HMO pre-incubation (imaging of adherent cells); format: cell-based, monkey; conditions: HMO 2 mg/ml pre-incubated 16 hours, MOI 0.001, compared to cells in the absence of an HMO (FIG. 1)
[2] = tested on: human coronavirus (HCoV-229E); assay: HCoV-229E infection of A549 cells after HMO pre-incubation (imaging of adherent cells); format: cell-based; conditions: HMO 2 mg/ml pre-incubated 16 hours, MOI 0.01, up to three days post-infection (FIG. 2)
Experimental: Monkey kidney epithelial (MK2-LLC) cells or human alveolar epithelial (A549) cells were seeded in 12-well plates at 1E5 cells per well.
24-hours post incubation, cells were washed with serum-free media and incubated with the particular HMO at 2 mg/ml final concentration.
16-hours post HMO incubation, the particular virus (for MK2-LLC cells this was Tulane virus, at a multiplicity of infection (MOI) of 0.001; for A549 cells this was human coronavirus (HCoV-229E), at an MOI of 0.01) was added and infection was allowed to proceed.
Images of adherent (live) cells were recorded two-days post infection after aspirating and washing cells with PBS. All wells were washed on Day 3 prior to imaging.
It was hypothesized that HMOs enhance cellular adhesion, cell structural integrity and modulate tight junction proteins as a generalized function regardless of the organ from which the epithelial cells are derived, and this function in turn alters the response to pathogenic challenges. […] As proof-of-concept, human alveolar epithelial (A549) cells were incubated in the presence of physiological levels of an HMO (2′-FL or 3′-SL) for 16 hours and infected the cells with a human coronavirus (HCoV-229E).

[3] = tested on: human coronavirus (HCoV-229E); format: cell-based; conditions: A549 cells, MOI 0.01, three days post infection (FIG. 3)
[4] = tested on: human coronavirus (HCoV-229E); format: cell-based; conditions: HMO 2 mg/ml or 5 mg/ml for 16 hours before HCoV-229E (MOI 0.01), 48 hours of viral infection (FIG. 4)
[5] = tested on: Type I (IFN-α1, IFN-β1) and Type III interferons (IFN-λ1, IFN-λ2, and IFN-λ3); assay: Host-cell interferon response during HCoV-229E infection of A549 cells (real-time PCR); format: cell-based, human; conditions: HMO 2 mg/ml pre-incubated 16 hours, MOI 0.01, 24 hours post infection (FIG. 6)
[6] = HMO 2 mg/ml added simultaneously with HCoV-229E ('During')
[7] = HMO 2 mg/ml added two hours post viral adsorption ('After')

Molecule | cellular adherence and cell viability in the presence of Tulane virus [1] | A549 epithelial cell morphology after HCoV-229E infection [2] | loss of adherent cells, virus-mediated loss of cell viability and cytopathogenic effects [3, 6] | loss of adherent cells, virus-mediated loss of cell viability and cytopathogenic effects [3, 7] | A549 cell viability (live cell fluorescence, Calcein-AM) [4] | Type I and Type III interferon response (fold-induction) during HCoV-229E infection [5]
CC(=O)N[C@H]1[C@H]([C@H](O)[C@H](O)CO)O[C@@](O[C@H]2[C@@H](O)[C@@H](CO)O[C@@H](O[C@H]3[C@H](O)[C@@H](O)C(O)O[C@@H]3CO)[C@@H]2O)(C(=O)O)C[C@@H]1O (stereo partly shown) [3′-SL, 3′-sialyllactose] | increased cellular adherence and cell viability | little or no change in A549 epithelial cell morphology | reduced the loss of adherent cells, the virus-mediated loss of cell viability and the cytopathogenic effects | reduced the loss of adherent cells, the virus-mediated loss of cell viability and the cytopathogenic effects | retain viability | dramatically attenuated
Lacto-N-fucopentaose I [LNFP I] | increased cellular adherence and cell viability | – | – | – | – | –
2′-Fucosyllactose [2′-FL] | increased cellular adherence and cell viability | little or no change in A549 epithelial cell morphology | reduced the loss of adherent cells, the virus-mediated loss of cell viability and the cytopathogenic effects | reduced the loss of adherent cells, the virus-mediated loss of cell viability and the cytopathogenic effects | retain viability | dramatically attenuated
